Values of other authors as cited in US8067401B2, “Compounds and compositions for treating infection” (priority 2007, dated 2011).

Test system: HIV-1

## Prunellin
  minimum inhibition concentration against HIV-1 in vitro: 2.2 µg/mL
